Holding throughout (experiment): growth of human tumour cells (NCI), 48 h
The test system of assay [1] is IGROV1 ovarian.
Assay [2] relates to CAKI-1 renal.
The test system of assay [3] is HL-60(TB) leukemia.
Assay [4] relates to DU-145 prostate.
Assay [5] has as its system HCT-116 colon.
The test system of assay [6] is HCC-2998 colon.
For assay [7], the system named is SK-MEL-5 melanoma.
The test system of assay [8] is PC-3 prostate.
In assay [9] the test system is UACC-257 melanoma.
Assay [10] has as its system NCI-H226 lung.

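How tested: cells in 96-well plates exposed to compound for 48 hours at five concentrations. TGI marks complete inhibition of growth.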

With `CN(C)CCC(C#N)(c1ccccc1)c1ccccc1`, the TGI in assay [1] was > 100 µM; in assay [2] it was > 100 µM; in assay [3], 65.3 µM; in assay [4], > 100 µM; in assay [5], > 100 µM; in assay [6] it was 34.1 µM. The TGI in [7] was 51.1 µM; in assay [8], > 100 µM; in assay [9], 59.2 µM; in assay [10] it was > 100 µM.
On to `Cc1nnc(NS(=O)(=O)c2ccc(N=Nc3c(O)c(C(=O)O)cc4ccccc34)cc2)s1`, for which the TGI in assay [1], in assay [2], in assay [3], in [4], in assay [5] and in assay [6] was > 100 µM each time. Also, the TGI in [7], in assay [8], in assay [9] and in assay [10] was > 100 µM in each case.
On to `CC(=O)C1=C(C)N2C(=NC3=C(CCc4ccccc43)C2c2ccc(Cl)cc2)S1` (configuration not stated), for which the TGI was > 100 µM in assay [1]; > 100 µM in assay [2]; 10.9 µM in [3]; > 100 µM in assay [4]; > 100 µM in assay [5]; > 100 µM in assay [6]. The TGI in assay [7], in assay [8], in [9] and in [10] was > 100 µM in each case.
In the case of `CCOc1cc(NC(C)=O)ccc1C(=O)NN1C(=O)/C(=C/c2ccc(Cl)cc2)N=C1c1ccccc1`, the TGI is > 100 µM in assay [1]; > 100 µM in [2]; 89.6 µM in assay [3]; > 100 µM in assay [4]; > 100 µM in [5]; 81.3 µM in [7]. Besides, the TGI in assay [8], in [9] and in [10] was > 100 µM throughout.
On to `CC(=O)O[C@H]1CC[C@@]2(C)C(=CC[C@@H]3[C@@H]2CC[C@]2(C)C(=O)/C(=C\c4ccccc4)C[C@@H]32)C1`, for which the TGI in assay [1], in assay [2], in [4], in assay [5], in [6] and in assay [7] was > 100 µM each time. In addition, the TGI in assay [8], in [9] and in assay [10] was > 100 µM throughout.
Regarding `NC(Cc1c2ccccc2cc2ccccc12)C(=O)O` (configuration not stated), the TGI in assay [1], in assay [2], in [3], in [4], in [5] and in [6] was > 100 µM each time. The TGI in assay [7], in [8], in assay [9] and in assay [10] was > 100 µM each time.
`COC(=O)c1c(O)ccc2c1c1c(n2CCc2ccccc2)C(=O)c2ccccc2C1`: the TGI was 46 µM in assay [1]; 45.6 µM in assay [2]; 65.3 µM in assay [3]; > 100 µM in assay [4]; 35.8 µM in assay [5]; 43 µM in assay [7]. Moreover, the results for the TGI in [8], in assay [9] and in assay [10] were 50.6 µM, 44 µM and 40 µM, respectively.
`CC(=O)OC1=C(c2ccccc2)S(=O)(=O)c2ccccc21`: the TGI in [1], in assay [2], in assay [3], in [4], in assay [5] and in [6] was > 100 µM in each case. The TGI in [7], in assay [8], in assay [9] and in [10] was > 100 µM each time.
Turning to `CCCCCCCC(=O)N1C2CC3CCC2(CS1(=O)=O)C3(C)C` (configuration not stated), the TGI was > 100 µM in [1]; 61.7 µM in assay [2]; 41.9 µM in assay [3]; > 100 µM in assay [4]; > 100 µM in assay [5]; 51.2 µM in [6]. The TGI in assay [7] is 34.4 µM; in [8], 69.1 µM; in [9] it was 68.6 µM.
For `CC(=O)OCC1OC(Sc2nc(-c3ccccc3)c(C#N)c(=O)n2C2OC(COC(C)=O)C(OC(C)=O)C(OC(C)=O)C2OC(C)=O)C(OC(C)=O)C(OC(C)=O)C1OC(C)=O` (configuration not stated), the TGI in assay [1], in assay [2], in assay [4], in [5], in assay [6] and in assay [7] was > 100 µM in each case. The TGI in [8], in assay [9] and in assay [10] was > 100 µM in each case.
As for `O=C1OCC2=C1C(c1ccc(Cl)cc1)c1cc3c(cc1O2)OCO3` (configuration not stated), the TGI in assay [1] was > 100 µM; in [2], 10.8 µM; in assay [3], 12.8 µM; in assay [4] it was > 100 µM; in [5] it was > 34.6 µM; in assay [6], > 100 µM. Moreover, the TGI in assay [7], in assay [8], in assay [9] and in assay [10] was > 100 µM in each case.
For `COc1ccc(N(c2ccc(C#N)cc2)c2ccc(C#N)cc2)cc1`, the TGI in [1], in assay [2], in assay [3], in assay [4], in assay [5] and in [7] was > 100 µM throughout. Moreover, the TGI in assay [8], in assay [9] and in assay [10] was > 100 µM in each case.
For the compound `N#Cc1nc(CCC(C(=O)O)N2C(=O)c3ccccc3C2=O)oc1N` (configuration not stated), the TGI in assay [1], in assay [2], in assay [3], in [4], in assay [6] and in [7] was > 100 µM throughout. For the same compound, the TGI in assay [8], in [9] and in assay [10] was > 100 µM in each case.
As for `CC12CCC(C(=Nc3ccc([N+](=O)[O-])cc3)C1=O)C2(C)C` (configuration not stated), the TGI in [1] was 57.3 µM; in [2], > 100 µM; in assay [4] it was 79.5 µM; in [5], > 100 µM; in [6], 38.2 µM; in assay [7] it was 90.7 µM. For the same compound, the TGI in [8], in assay [9] and in assay [10] was > 100 µM throughout.
Regarding `C[C@@H](NC(=O)Nc1cccc(C(=O)Nc2cc(C(C)(C)C)ccc2C(=O)O)n1)c1ccccc1`, the TGI is > 100 µM in assay [1]; > 100 µM in [2]; > 100 µM in [3]; > 100 µM in [4]; 44.1 µM in assay [5]; > 100 µM in assay [6]. The TGI in [7] was > 100 µM; in [8], 79.1 µM; in assay [10], > 100 µM.
`CCOC(=O)c1cn2c(n1)sc1cc([N+](=O)[O-])ccc12`: the TGI in assay [1], in [2], in assay [4], in [5], in assay [6] and in assay [7] was > 100 µM each time. Further, the TGI in assay [8], in assay [9] and in [10] was > 100 µM throughout.
On to `CCOC(=O)c1sc(N)nc1N1CCCC1`, for which the TGI in [1], in [2], in assay [3], in assay [4], in assay [5] and in assay [7] was > 100 µM in each case. Further, the TGI in assay [8], in assay [9] and in [10] was > 100 µM in each case.
In the case of `CC(C)c1cc(C(C)C)c(S(=O)(=O)N/N=C2\CC3CCC2(C)C3(C)C)c(C(C)C)c1` (configuration not stated), the TGI in [1] is > 100 µM; in assay [2] it was > 100 µM; in [4], > 100 µM; in assay [5], > 100 µM; in assay [6] it was > 100 µM; in [7], 30.5 µM. In addition, the TGI in assay [8] is > 100 µM; in assay [9], 26.2 µM; in [10] it was 80 µM.
`C(#C[C@@]12CCC[C@@H]1NCO2)c1ccc2c(c1)OCO2`: the TGI is > 100 µM in assay [1]; > 100 µM in [2]; 68.2 µM in assay [3]; > 100 µM in assay [4]; 34.6 µM in [6]; > 100 µM in assay [7]. Moreover, the TGI in assay [8], in assay [9] and in assay [10] was > 100 µM each time.
With `COc1ccc2c(c1)SC1=Nc3sc4cc(OC)ccc4[n+]3CN12`, the TGI in assay [1] is > 100 µM; in [2], > 100 µM; in assay [3] it was 63.5 µM; in assay [4], > 100 µM; in assay [5], > 100 µM; in assay [7] it was 15.6 µM. Also, the TGI in [8] and in assay [9] was > 100 µM throughout.
On to `COc1ccc(CCN2C(=O)C(=O)C(C(=O)c3ccccc3)C2c2ccccc2)cc1OC` (configuration not stated), for which the TGI in assay [1], in assay [2], in [3], in assay [4], in assay [5] and in [6] was > 100 µM each time. In addition, the TGI in assay [7], in assay [8] and in assay [9] was > 100 µM throughout.
Consider `CC(C(=O)NCNC(=O)c1ccccc1)C(=O)NCc1ccccc1` (configuration not stated), for which the TGI in assay [1], in [2], in assay [3], in assay [4], in assay [5] and in [7] was > 100 µM in each case. Further, the TGI in assay [8], in assay [9] and in assay [10] was > 100 µM each time.
Turning to `COc1ccc(CC(COS(=O)(=O)c2ccc(C)cc2)NS(=O)(=O)c2ccc(C)cc2)cc1` (configuration not stated), the TGI in assay [1] was 30.1 µM; in assay [2], > 60.8 µM; in assay [4], 28.9 µM; in assay [5] it was > 48.4 µM; in assay [6], 29.5 µM; in assay [7], 24.6 µM. Besides, the results for the TGI in assay [8], in assay [9] and in assay [10] were 38.9 µM, 67.1 µM and 27.7 µM, respectively.
For `O=C(NNC(=O)c1cc2ccccc2[nH]1)c1cc2ccccc2[nH]1`, the TGI in assay [1], in [2], in assay [3], in [4], in assay [5] and in assay [7] was > 100 µM each time. The TGI in assay [8], in [9] and in [10] was > 100 µM throughout.
For `COC(=O)[C@@H](N1C(=O)c2ccccc2C1=O)C1(C)CC(Cl)=NO1` (some centres not stated), the TGI in assay [1] was 58.2 µM; in [2] it was 83.7 µM; in assay [4] it was > 100 µM; in [5], > 100 µM; in assay [6], > 100 µM; in [7] it was > 100 µM. For the same compound, the TGI in [8], in [9] and in [10] was > 100 µM each time.
With `CCOC(=O)n1c(=O)nc2c3c(ncn21)Oc1c(c(-c2ccccc2)nn1-c1ccccc1)C3c1ccc(Cl)cc1` (configuration not stated), the TGI in [2] is 2.96 µM; in [3], 2.78 µM; in assay [4] it was 3.09 µM; in assay [5], 2.82 µM; in assay [6] it was 1.97 µM; in assay [7], 3.07 µM. Besides, the TGI in [8] turned out to be 3.1 µM; in assay [9], 3.42 µM; in [10] it was 2.99 µM.
Regarding `C/C(=C\COP(=O)(O)CP(=O)(O)O)CC/C=C(\C)CNc1ccccc1`, the TGI in [1], in assay [2], in [3], in assay [4], in assay [5] and in assay [7] was > 100 µM each time. For the same compound, the TGI in assay [8], in [9] and in assay [10] was > 100 µM throughout.
As for `CC(C)=CCN1c2ccccc2[C@@]2(CC=C(C)C)CCN(C)[C@@H]12`, the TGI in assay [1] was > 100 µM; in assay [2] it was > 100 µM; in assay [3], 38.1 µM; in assay [4], > 100 µM; in [5], 73.2 µM; in assay [6] it was 29.5 µM. For the same compound, the TGI in assay [7] is 33.2 µM; in assay [8], > 100 µM; in [10], > 100 µM.

The values above are taken from PubChem BioAssay (NCI).
